This is an account of results in BindingDB's records for doi:10.7270/Q2NP22V6 (NMMLSC, 2007).

In the experiment the target is T1, N-formyl peptide receptor 2 (Homo sapiens, UniProt P25090).
T1 sequence (P25090 whole entry): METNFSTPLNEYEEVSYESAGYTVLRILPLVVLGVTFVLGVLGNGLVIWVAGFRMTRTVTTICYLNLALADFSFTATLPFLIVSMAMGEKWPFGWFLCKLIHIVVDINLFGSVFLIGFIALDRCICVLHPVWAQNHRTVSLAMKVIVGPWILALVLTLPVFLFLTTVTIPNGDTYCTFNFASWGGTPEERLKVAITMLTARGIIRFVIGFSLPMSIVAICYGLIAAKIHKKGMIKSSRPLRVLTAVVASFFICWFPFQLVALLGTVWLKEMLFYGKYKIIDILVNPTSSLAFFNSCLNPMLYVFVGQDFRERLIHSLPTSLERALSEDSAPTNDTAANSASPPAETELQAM
In words: human FPR2 ligand displacement potency – cell-based, flow cytometry, Ki from IC50, dose response (AID 766). Background: A flow cytometer gives signals particle by particle.

Broadly, the IC50 is the concentration needed to halve the response being measured. Higher therefore signals weaker potency. `O=C(N1CCN(c2nc(-c3ccccc3)c3ccccc3n2)CC1)C(F)(F)F` [2,2,2-trifluoro-1-[4-(4-phenyl-2-quinazolinyl)-1-piperazinyl]ethanone] came in with an IC50 of more than 57.5 µM. On the same count and under the same terms, the result for `COc1ccc(-c2cc(C(F)(F)F)nc(N3CCN(C(c4ccccc4)c4ccccc4)CC3)n2)cc1OC` [2-(4-benzhydrylpiperazin-1-yl)-4-(3,4-dimethoxyphenyl)-6-(trifluoromethyl)pyrimidine] reads more than 41.6 µM. `COc1ccc(-c2cc(C(F)(F)F)nc(N3CCN(Cc4ccccc4)CC3)n2)cc1OC` [2-(4-benzylpiperazin-1-yl)-4-(3,4-dimethoxyphenyl)-6-(trifluoromethyl)pyrimidine]: the IC50 (inactive by the depositor's call) came out at 16.5 µM. `COc1ccc(-c2cc(C(F)(F)F)nc(N3CCN(c4ccccc4)CC3)n2)cc1OC` [4-(3,4-dimethoxyphenyl)-2-(4-phenyl-1-piperazinyl)-6-(trifluoromethyl)pyrimidine] displayed an IC50 of more than 50 µM. On to `CCOC(=O)N1CCN(c2nc(-c3ccc(OC)c(OC)c3)cc(C(F)(F)F)n2)CC1` [4-[4-(3,4-dimethoxyphenyl)-6-(trifluoromethyl)-2-pyrimidinyl]-1-piperazinecarboxylic acid ethyl ester], for which the IC50 is more than 50.5 µM. In turn, `COc1ccc(-c2cn3cccnc3n2)cc1NC(=O)C1CC1` [MLS000045944] returned an IC50 of 6.7 µM. As to `COc1ccc(-c2cn3cccnc3n2)cc1NC(=O)C1CCCC1` [MLS000045945], the IC50 is more than 66.1 µM. `COc1ccc(CC(=O)Nc2cc(-c3cn4cccnc4n3)ccc2OC)cc1` [N-(5-imidazo[1,2-a]pyrimidin-2-yl-2-methoxy-phenyl)-2-(4-methoxyphenyl)acetamide] displayed an IC50 of 9.9 µM. In turn, `COc1ccc(-c2cn3cccnc3n2)cc1NC(=O)C(C)C` [N-(5-imidazo[1,2-a]pyrimidin-2-yl-2-methoxy-phenyl)-2-methyl-propanamide] displayed an IC50 of 3.6 µM. In turn, `CCC(=O)Nc1cc(-c2cn3cccnc3n2)ccc1OC` [N-(5-imidazo[1,2-a]pyrimidin-2-yl-2-methoxy-phenyl)propanamide] gave an IC50 of 10.7 µM.
